From patent publication US20020137929A1, “1 - (3-heterocyclylphenyl) isothiourea, -isourea, -guanidine and -amidine herbicidal agents” (Intellectual Property Department, BASF Aktiengesellschaft, priority 1998, published 2002)

Columns and labels:
GALAP (Galium) = test: Preemergence herbicidal evaluation; format: in vivo, Galium aparine; conditions: rated 4-5 weeks after treatment
Summary of the method: (§1)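 Seeds were planted in potting soil in cups, then sprayed preemergence with the test compound in aqueous acetone at about 0.0156 to 0.500 kg per hectare. Cups were kept under greenhouse conditions and visually rated 4–5 weeks after treatment on a 0–9 scale against an untreated control.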

CYPSE (Flatsedge) = test: Postemergence weed control under flooded paddy conditions; format: in vivo, Cyperus serotinus; conditions: postemergence weeds, 3-4 weeks after treatment
Summary of the method: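 Containers holding 3–5 cm weeds and rice at 1.5–2.5 leaves are flooded to 1.5–3 cm above soil. Compound in 50/50 v/v aqueous/acetone is then added directly to the water, about 0.0313–0.500 kg/ha. Plants are kept in the greenhouse and rated 0–9 visually at 3–4 weeks.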

ECHCG (Barnyardgrass) = test: Postemergence herbicidal evaluation; format: in vivo, Echinochloa crus-galli; conditions: postemergence
Summary of the method: (§2)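 First, seedlings were raised for around two weeks. Next, test material in 50/50 acetone/water containing 0.5% TWEEN 20 was sprayed through a nozzle at 40 psi, equivalent to about 0.0156–0.500 kg/ha. Finally, after 4–5 weeks in the greenhouse, plants were rated 0–9.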

ORYSAT (Rice, Tebonnet) [1] = test: Preemergence herbicidal evaluation; format: in vivo, Oryza sativa, (L.) Tebonnet; conditions: rated 4-5 weeks after treatment
Summary of the method: as §1

CYPIR (Rice Flatsedge) = test: Preemergence weed control under flooded paddy conditions; format: in vivo, Cyperus iria; conditions: rated 3-4 weeks after treatment
Summary of the method: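 Flooded-pot preemergence screen with silt loam and seeds in the upper 0.5 cm. Dose about 0.0313 to 0.500 kg/ha, delivered into flood water; visual 0-9 score after 3 to 4 weeks.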

[2] = test system: TRZAWR (Wheat, Winter, cv Riband); test: Preemergence herbicidal evaluation; format: in vivo, Triticum aestivum; conditions: rated 4-5 weeks after treatment
Summary of the method: as §1

ZEAMX (Corn, Field) = test: Preemergence herbicidal evaluation; format: in vivo, Zea mays; conditions: rated 4-5 weeks after treatment
Summary of the method: as §1

MOOVA (Monochoria) = test: Preemergence weed control under flooded paddy conditions; format: in vivo, Monochoria vaginalis; conditions: rated 3-4 weeks after treatment
Summary of the method: (§3)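 Greenhouse paddy assay. Acetone/water (50/50 v/v) solutions dosed into flood water, equivalent to about 0.0313 to 0.500 kg/ha active ingredient, over seeds planted 0.5 cm deep in silt loam. Score: 0-9 visual, based on stand, vigor, malformation, size and chlorosis, 3 to 4 weeks after treatment.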

[3] = test system: GLXMAW (Soybean, Williams); test: Preemergence herbicidal evaluation; format: in vivo, Glycine max, (L.) Merr. cv Williams; conditions: rated 4-5 weeks after treatment
Summary of the method: as §1

CASOB (Sicklepod) = test: Postemergence herbicidal evaluation; format: in vivo, Cassia obtusifolia; conditions: postemergence
Summary of the method: as §2

[4] = test system: CHEAL (Lambsquarters, Common); test: Postemergence herbicidal evaluation; format: in vivo, Chenopodium album; conditions: postemergence
Summary of the method: as §2

SETVI (Foxtail, Green) = test: Preemergence herbicidal evaluation; format: in vivo, Setaria viridis; conditions: rated 4-5 weeks after treatment
Summary of the method: as §1

[5] = test system: SAGPY (Arrowhead (Pygmaea)); test: Preemergence weed control under flooded paddy conditions; format: in vivo, Sagittaria pygmaea; conditions: rated 3-4 weeks after treatment
Summary of the method: as §3

ORYSAT (Rice, Tebonnet) [6] = test: Postemergence herbicidal evaluation; format: in vivo, Oryza sativa, (L.) Tebonnet; conditions: postemergence
Summary of the method: as §2

CCOC(=O)CN1C(=O)CSC1=Nc1cc(-n2c(=O)cc(C(F)(F)F)n(C)c2=O)c(F)cc1Cl [Compound 8, Ethyl 2-{{2-chloro-5-[3,6-dihydro-3-methyl-2,6-dioxo-4-(trifluoromethyl)-1(2H)pyrimidinyl]-4-fluorophenyl}imino}-4-oxo-3-thiazolidineacetate]
GALAP preemergence herbicidal rating (GALAP (Galium); rate 0.0156 kg/ha): 0.0
GALAP preemergence herbicidal rating (GALAP (Galium); rate 0.0313 kg/ha): 1.3
GALAP preemergence herbicidal rating (GALAP (Galium); rate 0.0625 kg/ha): 5.5
GALAP preemergence herbicidal rating (GALAP (Galium); rate 0.1250 kg/ha): 7.5
GALAP preemergence herbicidal rating (GALAP (Galium); rate 0.2500 kg/ha): 9.0
GALAP preemergence herbicidal rating (GALAP (Galium); rate 0.5000 kg/ha): 9.0
Herbicidal rating CYPSE (CYPSE (Flatsedge); rate 0.0313 kg/ha): 0.0
Herbicidal rating CYPSE (CYPSE (Flatsedge); rate 0.0625 kg/ha): 0.0
Herbicidal rating CYPSE (CYPSE (Flatsedge); rate 0.1250 kg/ha): 0.0
Herbicidal rating CYPSE (CYPSE (Flatsedge); rate 0.2500 kg/ha): 0.0
ECHCG herbicidal rating (ECHCG (Barnyardgrass); rate 0.0157 kg/ha): 3.0
ECHCG herbicidal rating (ECHCG (Barnyardgrass); rate 0.0313 kg/ha): 2.1
ECHCG herbicidal rating (ECHCG (Barnyardgrass); rate 0.0625 kg/ha): 5.3
ECHCG herbicidal rating (ECHCG (Barnyardgrass); rate 0.1250 kg/ha): 8.2
ORYSAT preemergence herbicidal rating (ORYSAT (Rice, Tebonnet) [1]; rate 0.0156 kg/ha): 0.6
ORYSAT preemergence herbicidal rating (ORYSAT (Rice, Tebonnet) [1]; rate 0.0313 kg/ha): 0.8
ORYSAT preemergence herbicidal rating (ORYSAT (Rice, Tebonnet) [1]; rate 0.0625 kg/ha): 2.8
ORYSAT preemergence herbicidal rating (ORYSAT (Rice, Tebonnet) [1]; rate 0.1250 kg/ha): 5.4
ORYSAT preemergence herbicidal rating (ORYSAT (Rice, Tebonnet) [1]; rate 0.2500 kg/ha): 7.1
ORYSAT preemergence herbicidal rating (ORYSAT (Rice, Tebonnet) [1]; rate 0.5000 kg/ha): 8.5
Herbicidal rating CYPIR (CYPIR (Rice Flatsedge); 0.0313 kg/ha): 0.0
Herbicidal rating CYPIR (CYPIR (Rice Flatsedge); 0.0625 kg/ha): 0.0
Herbicidal rating CYPIR (CYPIR (Rice Flatsedge); 0.1250 kg/ha): 0.0
Herbicidal rating CYPIR (CYPIR (Rice Flatsedge); 0.2500 kg/ha): 4.0
TRZAWR preemergence herbicidal rating ([2]; rate 0.0156 kg/ha): 0.2
TRZAWR preemergence herbicidal rating ([2]; rate 0.0313 kg/ha): 0.8
TRZAWR preemergence herbicidal rating ([2]; rate 0.0625 kg/ha): 2.8
TRZAWR preemergence herbicidal rating ([2]; rate 0.1250 kg/ha): 5.5
TRZAWR preemergence herbicidal rating ([2]; rate 0.2500 kg/ha): 7.2
TRZAWR preemergence herbicidal rating ([2]; rate 0.5000 kg/ha): 7.8
ZEAMX preemergence herbicidal rating (ZEAMX (Corn, Field); rate 0.0156 kg/ha): 2.2
ZEAMX preemergence herbicidal rating (ZEAMX (Corn, Field); rate 0.0313 kg/ha): 4.9
ZEAMX preemergence herbicidal rating (ZEAMX (Corn, Field); rate 0.0625 kg/ha): 6.4
ZEAMX preemergence herbicidal rating (ZEAMX (Corn, Field); rate 0.1250 kg/ha): 7.4
ZEAMX preemergence herbicidal rating (ZEAMX (Corn, Field); rate 0.2500 kg/ha): 7.9
ZEAMX preemergence herbicidal rating (ZEAMX (Corn, Field); rate 0.5000 kg/ha): 8.3
Herbicidal rating MOOVA (MOOVA (Monochoria); 0.0313 kg/ha): 9.0
Herbicidal rating MOOVA (MOOVA (Monochoria); 0.0625 kg/ha): 9.0
Herbicidal rating MOOVA (MOOVA (Monochoria); 0.1250 kg/ha): 9.0
Herbicidal rating MOOVA (MOOVA (Monochoria); 0.2500 kg/ha): 9.0
GLXMAW preemergence herbicidal rating ([3]; rate 0.0156 kg/ha): 0.2
GLXMAW preemergence herbicidal rating ([3]; rate 0.0313 kg/ha): 1.1
GLXMAW preemergence herbicidal rating ([3]; rate 0.0625 kg/ha): 3.2
GLXMAW preemergence herbicidal rating ([3]; rate 0.1250 kg/ha): 5.9
GLXMAW preemergence herbicidal rating ([3]; rate 0.2500 kg/ha): 7.9
GLXMAW preemergence herbicidal rating ([3]; rate 0.5000 kg/ha): 8.8
CASOB herbicidal rating (CASOB (Sicklepod); rate 0.0157 kg/ha): 0.0
CASOB herbicidal rating (CASOB (Sicklepod); rate 0.0313 kg/ha): 1.8
CASOB herbicidal rating (CASOB (Sicklepod); rate 0.0625 kg/ha): 3.0
CASOB herbicidal rating (CASOB (Sicklepod); rate 0.1250 kg/ha): 3.0
CHEAL herbicidal rating ([4]; rate 0.0157 kg/ha): 5.0
CHEAL herbicidal rating ([4]; rate 0.0313 kg/ha): 7.5
CHEAL herbicidal rating ([4]; rate 0.0625 kg/ha): 8.4
CHEAL herbicidal rating ([4]; rate 0.1250 kg/ha): 9.0
SETVI preemergence herbicidal rating (SETVI (Foxtail, Green); rate 0.0156 kg/ha): 2.8
SETVI preemergence herbicidal rating (SETVI (Foxtail, Green); rate 0.0313 kg/ha): 6.1
SETVI preemergence herbicidal rating (SETVI (Foxtail, Green); rate 0.0625 kg/ha): 8.2
SETVI preemergence herbicidal rating (SETVI (Foxtail, Green); rate 0.1250 kg/ha): 9.0
SETVI preemergence herbicidal rating (SETVI (Foxtail, Green); rate 0.2500 kg/ha): 9.0
SETVI preemergence herbicidal rating (SETVI (Foxtail, Green); rate 0.5000 kg/ha): 9.0
Herbicidal rating SAGPY ([5]; 0.0313 kg/ha): 0.0
Herbicidal rating SAGPY ([5]; 0.0625 kg/ha): 0.0
Herbicidal rating SAGPY ([5]; 0.1250 kg/ha): 0.0
Herbicidal rating SAGPY ([5]; 0.2500 kg/ha): 0.0
ORYSAT herbicidal rating (ORYSAT (Rice, Tebonnet) [6]; rate 0.0157 kg/ha): 2.0
ORYSAT herbicidal rating (ORYSAT (Rice, Tebonnet) [6]; rate 0.0313 kg/ha): 2.7
ORYSAT herbicidal rating (ORYSAT (Rice, Tebonnet) [6]; rate 0.0625 kg/ha): 4.1
ORYSAT herbicidal rating (ORYSAT (Rice, Tebonnet) [6]; rate 0.1250 kg/ha): 5.3
